System: HL-60
Assay: Inhibitory concentration against interleukin-1 beta production in HL-60 cells stimulated with lipopolysaccharide (LPS).
Format: functional, cell-based
Conditions: Homo sapiens

Structure (SMILES) | IC50 [µM]
COc1ccc(-c2cc(=O)n(C3CC3)nc2-c2ccc(OC)cc2)cc1 | 7.98
COc1ccc(-c2cc(=O)n(Cc3c(Cl)cc(Cl)cc3Cl)nc2-c2ccc(OC)cc2)cc1 | 9.4
COc1ccc(-c2cc(=O)n(C(C)C)nc2-c2ccc(OC)cc2)cc1 | 1.32
C=CCn1nc(-c2ccc(OC)cc2)c(-c2ccc(OC)cc2)cc1=O | > 100
COc1ccc(-c2cc(=O)n(Cc3ccccn3)nc2-c2ccc(OC)cc2)cc1 | 1.48
COc1ccc(-c2cc(=O)n(CC3CC3)nc2-c2ccc(OC)cc2)cc1 | 1.8
COc1ccc(-c2cc(O)nnc2-c2ccc(OC)cc2)cc1 | 31.6
COc1ccc(-c2cc(=O)n(Cc3ccc(Cl)cc3)nc2-c2ccc(OC)cc2)cc1 | 0.53
COc1ccc(-c2cc(=O)n(Cc3c(Cl)cccc3Cl)nc2-c2ccc(OC)cc2)cc1 | 3.16
COc1ccc(-c2cc(=O)n(CC(C)C)nc2-c2ccc(OC)cc2)cc1 | > 100
CCn1nc(-c2ccc(OC)cc2)c(-c2ccc(OC)cc2)cc1=O | 0.61
COc1ccc(-c2cc(=O)n(C/C=C/c3ccccc3)nc2-c2ccc(OC)cc2)cc1 | 0.62
COc1ccc(-c2cc(=O)n(C)nc2-c2ccc(OC)cc2)cc1 | 1.13
COc1ccc(-c2cc(=O)n(Cc3ccc(F)c(F)c3)nc2-c2ccc(OC)cc2)cc1 | 0.54
COc1ccc(-c2cc(=O)n(Cc3ccc(Cl)cc3Cl)nc2-c2ccc(OC)cc2)cc1 | 1.1

Continued by falling IC50, values first:

IC50 [µM] | Structure (SMILES)
0.52 | COc1ccc(-c2cc(=O)n(Cc3ccncc3)nc2-c2ccc(OC)cc2)cc1
0.51 | COc1ccc(-c2cc(=O)n(C3CCCC3)nc2-c2ccc(OC)cc2)cc1
0.43 | COc1ccc(-c2cc(=O)n(Cc3cccnc3)nc2-c2ccc(OC)cc2)cc1
0.27 | COc1ccc(-c2cc(=O)n(C/C=C/c3ccc(Cl)cc3Cl)nc2-c2ccc(OC)cc2)cc1
0.26 | COc1ccc(-c2cc(=O)n(Cc3ccccc3)nc2-c2ccc(OC)cc2)cc1
0.21 | COc1ccc(-c2cc(=O)n(Cc3ccc(Cl)c(Cl)c3)nc2-c2ccc(OC)cc2)cc1
0.18 | COc1ccc(-c2cc(=O)n(Cc3ccc(F)cc3F)nc2-c2ccc(OC)cc2)cc1
0.17 | COc1ccc(-c2cc(=O)n(C/C=C/c3ccc(F)cc3)nc2-c2ccc(OC)cc2)cc1
0.15 | COc1ccc(-c2cc(=O)n(Cc3ccc(F)cc3)nc2-c2ccc(OC)cc2)cc1
0.11 | COc1ccc(-c2cc(=O)n(CC3CCCC3)nc2-c2ccc(OC)cc2)cc1
0.1 | COc1ccc(-c2cc(=O)n(C/C=C/c3ccc(Cl)cc3)nc2-c2ccc(OC)cc2)cc1
0.1 | COc1ccc(-c2cc(=O)n(C/C=C/c3ccc(F)cc3F)nc2-c2ccc(OC)cc2)cc1

Species: Rattus norvegicus
Assay: Pharmacokinetic property (AUC) in rat
Format: ADME, organism-based
Conditions: in vivo

AUC [ng·h/mL] | Structure (SMILES)
3900 | COc1ccc(-c2cc(=O)n(C/C=C/c3ccc(Cl)cc3)nc2-c2ccc(OC)cc2)cc1

System: not listed separately
Assay: Pharmacokinetic property (Tmax) in rat
Format: ADME, organism-based
Conditions: in vivo

Tmax [h] | Structure (SMILES)
7 | COc1ccc(-c2cc(=O)n(C/C=C/c3ccc(Cl)cc3)nc2-c2ccc(OC)cc2)cc1

System: not listed separately
Assay: Pharmacokinetic property (Cmax) in rat
Format: ADME, organism-based
Conditions: in vivo

Cmax [ng/mL] | Structure (SMILES)
316 | COc1ccc(-c2cc(=O)n(C/C=C/c3ccc(Cl)cc3)nc2-c2ccc(OC)cc2)cc1

System: not listed separately
Assay: Pharmacokinetic property (t1/2) in rat
Format: ADME, organism-based
Conditions: in vivo

half-life [h] | Structure (SMILES)
4.9 | COc1ccc(-c2cc(=O)n(C/C=C/c3ccc(Cl)cc3)nc2-c2ccc(OC)cc2)cc1

From ChEMBL document CHEMBL1134422, “Synthesis and bioactivities of novel 5,6-bis(4-methoxyphenyl)-2H-pyridazin-3-one derivatives: inhibitors of interleukin-1 beta (IL-1beta) production” (Bioorg Med Chem Lett, 2001)
